Patent US12606561B2, “Substituted pyrazolo[1,5-a][1,3,5]triazines as CDK inhibitors” (QURIENT CO., LTD., priority 2018, dated 2026)
pIC50: −log10 of the molar value.

Columns and labels:
CDK7/Cyclin H/MNAT1 = biological target: T1, CDK7/Cyclin H/MNAT1 (Homo sapiens, UniProt P50613); experiment: Enzymatic assay for CDK7 (LANCE Ultra kinase assay, FRET based); assay type: biochemical; conditions: for pIC50: ATP at Km
T1 construct: purchased Invitrogen PR6749B
Description: (§1) Enzymatic Binding Assay Protocol for CDK1, CDK2, CDK5 and CDK7
(§2) Inhibition activity of the respective compound on CDK kinase under Km value of ATP was tested in FRET based The LANCE® Ultra kinase assay (Perkin Elmer), which uses a ULight™-labeled peptide substrate and an appropriate Europium-labeled anti-phospho-antibody. […] After 1 min centrifugation at 1000 rpm, purified CDKs/Cyclin complex were added with the following concentrations respectively. […] Data were analyzed using XL Fit software.

CDK1/Cyclin B = biological target: T2, CDK1/Cyclin B (Homo sapiens, UniProt P06493); experiment: Enzymatic assay for CDK1 (LANCE Ultra kinase assay, FRET based); assay type: biochemical; conditions: ATP at Km; read-out: CDK1 enzymatic activity IC50
T2 construct: purchased Invitrogen PR4768C
Description: as §1, §2

CDK5/p25 = biological target: T3, CDK5/p25 (Homo sapiens, UniProt Q00535); experiment: Enzymatic assay for CDK5 (LANCE Ultra kinase assay, FRET based); assay type: biochemical; conditions: ATP at Km
T3 construct: purchased Invitrogen PR8543B
Description: as §1
(§3) Inhibition activity of the respective compound on CDK kinase under Km value of ATP was tested in FRET based The LANCE® Ultra kinase assay (Perkin Elmer), which uses a ULight™-labeled peptide substrate and an appropriate Europium-labeled anti-phospho-antibody. Test compounds were made with DMSO solutions, and then 4-fold serial dilutions for 8 doses were prepared using automated liquid handler (POD™ 810, Labcyte) and 80 nL/well of diluted compound solutions were added into the 384-well plates (Greiner, Cat #784075). And then 68 nM of ULight-MBP peptide (Perkin Elmer, Cat #TRF0109-M) and 5 ul/well of ATP (Sigma, Cat #A7699) were added to the plate. After 1 min centrifugation at 1000 rpm, purified CDKs/Cyclin complex were added with the following concentrations respectively. 24 uM for CDK1/Cyclin B (Invitrogen, Cat #PR4768C), 22 uM for CDK2/Cyclin A (Invitrogen, Cat #PV6290), 10 uM for CDK5/p25 (Invitrogen, Cat #PR8543B) and […] for CDK7/Cyclin H/MNAT1 (Invitrogen, Cat #PR6749B) were added to each corresponding plate for CDK1, CDK2, CDK5 and CDK7. Incubate at 23° C. for 60 min and then Eu-labeled anti-phospho-Myelin Basic Protein (PE, Cat #TRF0201-M) and EDTA (Invitrogen, Cat #15575038) mixture in Lance Detection Buffer (Perkin Elmer, Cat #CR97100) was added in each well. After additional incubation at 23° C. for 60 min, test articles were measured the fluorescence using Envision leader (Perkin Elmer, USA) [Laser as excitation light; […] as the first and the second emission filter]. Data were analyzed using XL Fit software.

CDK2/Cyclin A = biological target: T4, CDK2/Cyclin A (Homo sapiens, UniProt P24941); experiment: Enzymatic assay for CDK2 (LANCE Ultra kinase assay, FRET based); assay type: biochemical; conditions: ATP at Km
T4 construct: purchased Invitrogen PV6290
Description: as §1, §3

A2780 = A2780 viability assay (CellTiter-Glo, 72 hours); assay type: cell-based; conditions: Homo sapiens; A2780 cells
Description: Human […] cell line, MV4-11_(ATCC, Cat #CRL-9591), NSCLC (Non-small cell lung cancer) cell line H460 (ATCC, Cat #HTB-177), A2780 (ECACC, Cat #93112519) and OVCAR-3(ATCC, Cat #HTB-161) were obtained from ATCC. Cells were grown in RPMI-1640 media (Invitrogen, Cat #22400-089) supplemented with 10% FBS (Invitrogen, Cat #10099141) and 1% penicillin/streptomycin (Invitrogen, Cat #15070063) and cultured at 37° C., 5% CO2 in a humidified chamber. All cell lines were routinely tested for mycoplasma.
To effect of the CDK7 inhibitor to inhibit the growth of target cancer cells, viability assay were conducted a 72 hour time period. Briefly, the candidate cell line was plated in 96 well plate at the following density of cells respectively. 1×10^4 cells/well for MV4-11, 5×10^3 for H460 and OVCAR-3, and 1×10^3 for A2780. After 24 hours, the cells were treated with various concentrations of the compound (ranging from 0.0015 uM to 10 uM). DMSO solvent without compound served as a control and final DMSO concentration lest than 0.1%. After 72 hours of incubation at 37° C., 5% CO2 incubator, cells were analyzed for the viability using the CellTiter-Glo Luminescent Cell Viability Assay (Promega, Cat #G7570). All viability assays were performed in duplicate and Luminescence was read using an Envision (Perkin Elmer, USA). Data was analyzed using XLfit software.

T3 sequence (Q00535 whole entry): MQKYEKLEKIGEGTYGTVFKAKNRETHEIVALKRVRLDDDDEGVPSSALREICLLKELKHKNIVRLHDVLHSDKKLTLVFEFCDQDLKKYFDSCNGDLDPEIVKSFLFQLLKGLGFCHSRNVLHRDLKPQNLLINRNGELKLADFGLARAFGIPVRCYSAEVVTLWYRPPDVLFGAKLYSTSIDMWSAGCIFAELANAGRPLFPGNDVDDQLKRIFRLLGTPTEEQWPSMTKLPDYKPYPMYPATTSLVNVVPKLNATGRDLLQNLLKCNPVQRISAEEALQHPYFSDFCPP
T3 sequence (Q15078 99-307 partner limits assumed): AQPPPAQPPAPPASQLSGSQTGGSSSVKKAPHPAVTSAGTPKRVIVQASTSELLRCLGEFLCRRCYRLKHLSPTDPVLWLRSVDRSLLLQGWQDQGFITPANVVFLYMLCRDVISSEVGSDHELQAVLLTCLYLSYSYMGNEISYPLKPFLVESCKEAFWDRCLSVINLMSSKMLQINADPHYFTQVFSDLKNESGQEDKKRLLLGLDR
T1 sequence (P50613 whole entry): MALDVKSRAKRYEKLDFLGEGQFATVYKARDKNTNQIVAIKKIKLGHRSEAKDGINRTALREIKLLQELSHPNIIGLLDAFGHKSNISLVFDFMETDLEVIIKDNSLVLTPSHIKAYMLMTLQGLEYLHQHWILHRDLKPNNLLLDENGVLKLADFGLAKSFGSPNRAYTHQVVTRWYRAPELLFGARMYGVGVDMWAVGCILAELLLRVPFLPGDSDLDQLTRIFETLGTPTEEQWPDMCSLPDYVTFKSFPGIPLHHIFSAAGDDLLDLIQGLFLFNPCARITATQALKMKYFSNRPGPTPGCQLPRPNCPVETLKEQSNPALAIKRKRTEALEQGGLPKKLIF
T1 sequence (P51946 whole entry partner): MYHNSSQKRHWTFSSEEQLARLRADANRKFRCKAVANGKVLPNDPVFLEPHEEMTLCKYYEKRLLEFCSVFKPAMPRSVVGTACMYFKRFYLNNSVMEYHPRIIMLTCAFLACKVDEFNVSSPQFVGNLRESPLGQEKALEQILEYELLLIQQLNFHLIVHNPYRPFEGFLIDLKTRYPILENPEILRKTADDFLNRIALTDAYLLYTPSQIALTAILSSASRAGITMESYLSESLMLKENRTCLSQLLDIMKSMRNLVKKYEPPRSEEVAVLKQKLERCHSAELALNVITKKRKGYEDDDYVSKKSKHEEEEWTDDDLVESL
T1 sequence (P51948 whole entry partner): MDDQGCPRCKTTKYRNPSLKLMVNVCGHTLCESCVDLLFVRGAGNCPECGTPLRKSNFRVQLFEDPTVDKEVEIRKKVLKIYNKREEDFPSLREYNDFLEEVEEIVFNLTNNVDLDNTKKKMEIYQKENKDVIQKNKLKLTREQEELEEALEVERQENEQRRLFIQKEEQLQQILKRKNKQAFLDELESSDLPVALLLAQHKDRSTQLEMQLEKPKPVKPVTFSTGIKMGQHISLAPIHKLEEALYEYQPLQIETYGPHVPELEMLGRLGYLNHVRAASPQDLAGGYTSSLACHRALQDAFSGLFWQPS
T2 sequence (P06493 whole entry): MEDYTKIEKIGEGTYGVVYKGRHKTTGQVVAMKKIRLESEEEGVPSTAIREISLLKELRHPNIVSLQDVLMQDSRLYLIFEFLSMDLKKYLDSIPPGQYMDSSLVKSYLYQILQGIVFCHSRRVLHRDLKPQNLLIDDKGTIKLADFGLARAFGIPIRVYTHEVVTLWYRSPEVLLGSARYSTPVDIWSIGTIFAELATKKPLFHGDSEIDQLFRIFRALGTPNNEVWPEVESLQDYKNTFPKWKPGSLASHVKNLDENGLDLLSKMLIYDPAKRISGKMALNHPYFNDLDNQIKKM
T2 sequence (P14635 whole entry partner): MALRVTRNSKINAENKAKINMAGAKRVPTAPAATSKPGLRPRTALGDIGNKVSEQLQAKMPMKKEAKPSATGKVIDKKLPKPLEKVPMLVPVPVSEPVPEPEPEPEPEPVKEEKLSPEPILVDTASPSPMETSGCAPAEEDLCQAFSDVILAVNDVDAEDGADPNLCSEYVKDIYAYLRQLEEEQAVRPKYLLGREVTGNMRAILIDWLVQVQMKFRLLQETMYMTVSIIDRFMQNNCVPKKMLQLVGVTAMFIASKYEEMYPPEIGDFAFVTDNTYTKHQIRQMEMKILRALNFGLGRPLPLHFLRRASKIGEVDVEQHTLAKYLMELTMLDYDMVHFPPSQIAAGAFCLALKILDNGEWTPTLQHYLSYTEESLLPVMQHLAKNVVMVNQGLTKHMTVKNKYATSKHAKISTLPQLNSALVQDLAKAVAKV

SMILES	pIC50 (CDK7/Cyclin H/MNAT1)	CDK1/CDK7: Selectivity of CDK7 inhibition over CDK1 inhibition (CDK7/Cyclin H/MNAT1)	CDK2/CDK7: Selectivity of CDK7 inhibition over CDK2 inhibition (CDK7/Cyclin H/MNAT1)	CDK5/CDK7: Selectivity of CDK7 inhibition over CDK5 inhibition (CDK7/Cyclin H/MNAT1)	pIC50 (CDK1/Cyclin B)	pIC50 (CDK5/p25)	pIC50 (CDK2/Cyclin A)	pIC50 (A2780)
C=CC(=O)Nc1ccc2c(-c3ccccc3CNc3nc(Nc4ccncc4)nc4c(C(C)C)cnn34)nccc2c1 [Compound 189]	6.00 to 7.00	B (B indicates 50 < [fold] ≤ 500)	B (B indicates 50 < [fold] ≤ 500)	B (B indicates 50 < [fold] ≤ 500)	< 6.00	< 6.00	< 6.00	5.00 to 6.00
C=C(C)C(=O)Nc1ccc2c(-c3ccccc3CNc3nc(OC4CCC(C)(C)NC4)nc4c(C(C)C)cnn34)nccc2c1 (stereo not shown) [Compound 190]	> 7.00	A (A indicates [fold] > 500)	A (A indicates [fold] > 500)	A (A indicates [fold] > 500)	< 6.00	< 6.00	< 6.00	> 6.00
C=C(F)C(=O)N1CCc2c(cccc2-c2ccccc2CNc2nc(OC3CCC(C)(C)NC3)nc3c(C(C)C)cnn23)C1 (stereo not shown) [Compound 191]	> 7.00	A (A indicates [fold] > 500)	A (A indicates [fold] > 500)	A (A indicates [fold] > 500)	< 6.00	< 6.00	< 6.00	> 6.00
C=C(F)C(=O)N1CCc2c(cccc2-c2ccccc2CNc2nc(N[C@@H]3CCCNC3)nc3c(C(C)C)cnn23)C1 [Compound 192]	> 7.00	A (A indicates [fold] > 500)	A (A indicates [fold] > 500)	A (A indicates [fold] > 500)	< 6.00	< 6.00	< 6.00	> 6.00
C=CC(=O)Nc1ccc2c(-c3ccccc3CNc3cc(Cl)nc4c(C(C)C)cnn34)nccc2c1 [Compound 193]	> 7.00	A (A indicates [fold] > 500)	A (A indicates [fold] > 500)	A (A indicates [fold] > 500)	< 6.00	< 6.00	< 6.00	> 6.00
C=CC(=O)Nc1ccc2c(-c3ccccc3CNc3nc(Nc4cccc(OC5CCC(C)(C)NC5)c4)nc4c(C(C)C)cnn34)nccc2c1 (stereo not shown) [Compound 194]	> 7.00	A (A indicates [fold] > 500)	A (A indicates [fold] > 500)	A (A indicates [fold] > 500)	< 6.00	< 6.00	< 6.00	> 6.00
C=CC(=O)Nc1ccc2c(-c3ccccc3CNc3cc(C)nc4c(C(C)C)cnn34)nccc2c1 [Compound 195]	> 7.00	A (A indicates [fold] > 500)	A (A indicates [fold] > 500)	A (A indicates [fold] > 500)	< 6.00	< 6.00	< 6.00	> 6.00
C=CC(=O)Nc1ccc2c(-c3ccccc3CNc3nc(NCc4cnc(C)s4)nc4c(C(C)C)cnn34)nccc2c1 [Compound 196]	< 6.00	C (C indicates [fold] ≤ 50)	C (C indicates [fold] ≤ 50)	C (C indicates [fold] ≤ 50)	< 6.00	< 6.00	< 6.00	5.00 to 6.00
CC(C)c1cnn2c(NCc3ccccc3-c3cc4cccc(NC(=O)/C=C/CN(C)C)c4[nH]3)nc(N3CCC(Nc4nccs4)C3)nc12 (stereo not shown) [Compound 216]	6.00 to 7.00	B (B indicates 50 < [fold] ≤ 500)	B (B indicates 50 < [fold] ≤ 500)	B (B indicates 50 < [fold] ≤ 500)	< 6.00	< 6.00	< 6.00	

The next lines start with the values.

pIC50 (CDK7/Cyclin H/MNAT1)	CDK1/CDK7: Selectivity of CDK7 inhibition over CDK1 inhibition (CDK7/Cyclin H/MNAT1)	CDK2/CDK7: Selectivity of CDK7 inhibition over CDK2 inhibition (CDK7/Cyclin H/MNAT1)	CDK5/CDK7: Selectivity of CDK7 inhibition over CDK5 inhibition (CDK7/Cyclin H/MNAT1)	pIC50 (CDK1/Cyclin B)	pIC50 (CDK5/p25)	pIC50 (CDK2/Cyclin A)	pIC50 (A2780)	SMILES
> 7.00	A (A indicates [fold] > 500)	A (A indicates [fold] > 500)	A (A indicates [fold] > 500)	< 6.00	< 6.00	< 6.00		CO[C@H]1CC[C@H](Nc2nc(NCc3ccccc3-c3nccc4cc(NC(=O)/C=C/CN5CCCCC5)ccc34)n3ncc(C(C)C)c3n2)CC1 [Compound 155]
> 7.00	A (A indicates [fold] > 500)	A (A indicates [fold] > 500)	A (A indicates [fold] > 500)	< 6.00	< 6.00	< 6.00	> 6.00	C=CC(=O)Nc1ccc2c(-c3ccccc3CNc3cc(NC4CCC(C)(C)NC4)nc4c(C(C)C)cnn34)nccc2c1 (stereo not shown) [Compound 184]
> 7.00	A (A indicates [fold] > 500)	A (A indicates [fold] > 500)	A (A indicates [fold] > 500)	< 6.00	< 6.00	< 6.00	> 6.00	CC(C)c1cnn2c(NCc3ccccc3-c3nccc4cc(NC(=O)/C=C/CN(C)C)ccc34)cc(NC3CCC(F)(F)CC3)nc12 [Compound 185]
> 7.00	A (A indicates [fold] > 500)	A (A indicates [fold] > 500)	A (A indicates [fold] > 500)	< 6.00	< 6.00	< 6.00	> 6.00	C=CC(=O)Nc1ccc2c(-c3ccccc3CNc3cc(NC4CCC(F)(F)CC4)nc4c(C(C)C)cnn34)nccc2c1 [Compound 186]
> 7.00	A (A indicates [fold] > 500)	A (A indicates [fold] > 500)	A (A indicates [fold] > 500)	< 6.00	< 6.00	< 6.00	> 6.00	C=CC(=O)Nc1ccc2c(-c3ccccc3CNc3cc(Nc4cccc(OC5CCC(C)(C)NC5)c4)nc4c(C(C)C)cnn34)nccc2c1 (stereo not shown) [Compound 187]
> 7.00	A (A indicates [fold] > 500)	A (A indicates [fold] > 500)	A (A indicates [fold] > 500)	< 6.00	< 6.00	< 6.00	> 6.00	C=CC(=O)Nc1ccc2c(-c3ccccc3CNc3nc(Nc4cccnc4)nc4c(C(C)C)cnn34)nccc2c1 [Compound 188]
